ChEMBL document CHEMBL4507319 (2021)

How the values were obtained:
[1] = target: Calcium/calmodulin-dependent protein kinase type 1D (Homo sapiens) (UniProt Q8IU85); experiment: CaMKIdelta(h) Eurofins kinase panel; details: Compound concentration 1.0 uM
[2] = target: Cyclin-dependent kinase-like 1 (Homo sapiens) (UniProt Q00532); experiment: CDKL1(h) Eurofins kinase panel; details: Compound concentration 1.0 uM
[3] = target: T1, Serine/threonine-protein kinase 17A (Homo sapiens) (UniProt Q9UEE5); experiment: DRAK1(h) Eurofins kinase panel; details: Compound concentration 1.0 uM
T1 sequence (whole entry): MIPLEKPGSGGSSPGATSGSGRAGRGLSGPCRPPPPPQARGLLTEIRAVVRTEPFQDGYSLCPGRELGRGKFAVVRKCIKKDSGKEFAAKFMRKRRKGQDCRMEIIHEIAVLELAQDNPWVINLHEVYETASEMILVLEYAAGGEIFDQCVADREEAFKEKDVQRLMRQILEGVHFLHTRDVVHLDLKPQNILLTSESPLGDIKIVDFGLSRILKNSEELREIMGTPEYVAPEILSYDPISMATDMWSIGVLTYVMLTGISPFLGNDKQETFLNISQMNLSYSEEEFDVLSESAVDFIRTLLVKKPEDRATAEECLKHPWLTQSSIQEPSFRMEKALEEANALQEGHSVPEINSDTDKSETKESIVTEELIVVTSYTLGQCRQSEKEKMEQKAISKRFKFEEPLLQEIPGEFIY

[4] = target: LIM domain kinase 1 (Homo sapiens) (UniProt P53667); experiment: LIMK1(h) Eurofins kinase panel; details: Compound concentration 1.0 uM
LIM domain kinase 1 (Homo sapiens), sequence (P53667 whole entry, looked up, the tested form may be a part): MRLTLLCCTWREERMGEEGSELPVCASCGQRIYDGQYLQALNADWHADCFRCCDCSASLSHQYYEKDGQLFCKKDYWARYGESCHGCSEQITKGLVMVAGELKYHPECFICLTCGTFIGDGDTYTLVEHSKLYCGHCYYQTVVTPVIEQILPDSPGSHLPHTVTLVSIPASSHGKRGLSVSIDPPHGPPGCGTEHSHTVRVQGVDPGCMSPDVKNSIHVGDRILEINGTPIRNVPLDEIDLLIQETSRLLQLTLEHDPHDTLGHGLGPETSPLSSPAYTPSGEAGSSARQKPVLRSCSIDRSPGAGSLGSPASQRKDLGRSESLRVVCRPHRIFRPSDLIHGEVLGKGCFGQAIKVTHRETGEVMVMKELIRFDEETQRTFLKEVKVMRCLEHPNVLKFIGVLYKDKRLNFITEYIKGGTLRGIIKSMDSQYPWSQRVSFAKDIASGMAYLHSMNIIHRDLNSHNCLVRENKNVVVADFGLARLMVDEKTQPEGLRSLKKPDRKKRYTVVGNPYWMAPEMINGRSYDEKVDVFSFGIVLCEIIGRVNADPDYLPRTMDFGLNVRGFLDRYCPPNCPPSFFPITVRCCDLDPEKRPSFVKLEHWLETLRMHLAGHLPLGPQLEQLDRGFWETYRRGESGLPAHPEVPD

[5] = target: MAP/microtubule affinity-regulating kinase 3 (Homo sapiens) (UniProt P27448); experiment: MARK3(h) Eurofins kinase panel; details: Compound concentration 1.0 uM
MAP/microtubule affinity-regulating kinase 3 (Homo sapiens), sequence (P27448 whole entry, looked up): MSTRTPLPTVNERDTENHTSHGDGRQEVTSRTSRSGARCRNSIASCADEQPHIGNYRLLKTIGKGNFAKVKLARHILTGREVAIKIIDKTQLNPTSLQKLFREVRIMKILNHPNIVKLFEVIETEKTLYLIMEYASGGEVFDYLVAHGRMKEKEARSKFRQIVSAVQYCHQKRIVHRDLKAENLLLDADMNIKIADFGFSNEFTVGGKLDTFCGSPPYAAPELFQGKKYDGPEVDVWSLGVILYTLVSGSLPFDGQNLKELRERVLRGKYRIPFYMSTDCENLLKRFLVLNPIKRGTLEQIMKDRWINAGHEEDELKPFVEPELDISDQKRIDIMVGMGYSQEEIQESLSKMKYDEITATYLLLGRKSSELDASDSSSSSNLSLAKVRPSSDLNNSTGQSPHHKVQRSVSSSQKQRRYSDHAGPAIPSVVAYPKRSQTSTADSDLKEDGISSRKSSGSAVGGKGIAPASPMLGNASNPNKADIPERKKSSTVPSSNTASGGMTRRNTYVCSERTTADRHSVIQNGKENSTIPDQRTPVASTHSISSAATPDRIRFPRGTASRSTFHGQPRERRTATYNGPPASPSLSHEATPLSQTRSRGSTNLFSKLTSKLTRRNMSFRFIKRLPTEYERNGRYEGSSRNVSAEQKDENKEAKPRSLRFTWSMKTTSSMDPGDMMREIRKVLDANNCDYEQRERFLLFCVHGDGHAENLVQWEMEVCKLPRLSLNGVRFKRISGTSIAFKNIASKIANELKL

[6] = target: Mitogen-activated protein kinase kinase kinase 9 (Homo sapiens) (UniProt P80192); experiment: MLK1(h) Eurofins kinase panel; details: Compound concentration 1.0 uM
Mitogen-activated protein kinase kinase kinase 9 (Homo sapiens), sequence (P80192 whole entry, looked up): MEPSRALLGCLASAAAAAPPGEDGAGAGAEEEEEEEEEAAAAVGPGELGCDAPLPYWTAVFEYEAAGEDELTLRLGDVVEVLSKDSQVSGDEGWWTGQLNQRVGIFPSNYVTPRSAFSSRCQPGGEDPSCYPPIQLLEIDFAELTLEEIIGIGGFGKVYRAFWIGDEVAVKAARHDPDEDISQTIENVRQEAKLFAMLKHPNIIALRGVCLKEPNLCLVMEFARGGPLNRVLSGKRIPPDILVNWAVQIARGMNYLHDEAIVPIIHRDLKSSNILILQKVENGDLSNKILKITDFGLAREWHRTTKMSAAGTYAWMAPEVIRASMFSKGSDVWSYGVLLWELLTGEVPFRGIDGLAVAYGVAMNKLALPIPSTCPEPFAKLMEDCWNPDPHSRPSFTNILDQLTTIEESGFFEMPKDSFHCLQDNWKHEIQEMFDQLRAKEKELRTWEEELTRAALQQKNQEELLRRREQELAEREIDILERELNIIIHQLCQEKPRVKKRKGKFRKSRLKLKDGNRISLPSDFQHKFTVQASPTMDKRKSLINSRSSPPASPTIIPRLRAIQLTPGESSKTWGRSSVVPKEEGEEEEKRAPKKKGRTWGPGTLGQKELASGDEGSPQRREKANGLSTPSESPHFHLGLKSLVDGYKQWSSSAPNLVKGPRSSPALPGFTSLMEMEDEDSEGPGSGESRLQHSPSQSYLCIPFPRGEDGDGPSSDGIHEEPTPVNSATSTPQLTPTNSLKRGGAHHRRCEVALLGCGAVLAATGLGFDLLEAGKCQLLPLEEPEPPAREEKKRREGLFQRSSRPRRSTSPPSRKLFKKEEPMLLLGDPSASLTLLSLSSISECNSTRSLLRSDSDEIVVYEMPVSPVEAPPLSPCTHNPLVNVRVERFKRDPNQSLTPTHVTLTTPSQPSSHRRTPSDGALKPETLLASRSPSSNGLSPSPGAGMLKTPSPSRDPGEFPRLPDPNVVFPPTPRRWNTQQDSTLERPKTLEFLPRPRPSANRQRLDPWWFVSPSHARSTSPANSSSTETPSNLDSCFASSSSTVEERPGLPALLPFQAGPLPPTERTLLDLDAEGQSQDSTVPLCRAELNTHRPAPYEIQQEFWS

[7] = target: Serine/threonine-protein kinase MRCK beta (Homo sapiens) (UniProt Q9Y5S2); experiment: MRCKbeta(h) Eurofins kinase panel; details: Compound concentration 1.0 uM
[8] = target: T2, Serine/threonine-protein kinase Nek9 (Homo sapiens) (UniProt Q8TD19); experiment: NEK9(h) Eurofins kinase panel; details: Compound concentration 1.0 uM
T2 sequence (whole entry): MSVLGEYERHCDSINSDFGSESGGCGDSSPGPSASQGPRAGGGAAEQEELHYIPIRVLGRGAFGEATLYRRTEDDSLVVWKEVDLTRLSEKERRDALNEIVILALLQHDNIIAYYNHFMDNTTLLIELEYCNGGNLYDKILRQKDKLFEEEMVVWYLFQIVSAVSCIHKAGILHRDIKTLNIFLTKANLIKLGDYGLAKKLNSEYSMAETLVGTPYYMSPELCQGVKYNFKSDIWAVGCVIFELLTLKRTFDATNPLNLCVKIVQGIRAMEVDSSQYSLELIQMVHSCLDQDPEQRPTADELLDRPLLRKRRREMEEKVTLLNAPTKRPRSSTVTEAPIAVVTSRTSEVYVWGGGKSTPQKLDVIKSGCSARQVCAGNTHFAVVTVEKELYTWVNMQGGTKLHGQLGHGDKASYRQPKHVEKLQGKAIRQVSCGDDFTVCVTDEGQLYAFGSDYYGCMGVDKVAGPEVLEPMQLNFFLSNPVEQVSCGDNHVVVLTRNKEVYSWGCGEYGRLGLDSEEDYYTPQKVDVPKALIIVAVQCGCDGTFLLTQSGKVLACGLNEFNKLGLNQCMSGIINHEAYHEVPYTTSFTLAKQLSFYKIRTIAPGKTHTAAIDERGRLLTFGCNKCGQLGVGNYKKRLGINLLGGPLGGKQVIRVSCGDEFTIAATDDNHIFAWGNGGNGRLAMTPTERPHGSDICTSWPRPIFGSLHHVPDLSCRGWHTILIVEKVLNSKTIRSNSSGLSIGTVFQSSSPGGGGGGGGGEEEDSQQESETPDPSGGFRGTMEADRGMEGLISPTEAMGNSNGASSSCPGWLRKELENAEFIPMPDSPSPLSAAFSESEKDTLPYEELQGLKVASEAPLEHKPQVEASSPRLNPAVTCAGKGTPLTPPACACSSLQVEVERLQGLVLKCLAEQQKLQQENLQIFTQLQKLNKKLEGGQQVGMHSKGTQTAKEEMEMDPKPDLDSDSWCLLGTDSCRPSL

[9] = target: RAC-alpha serine/threonine-protein kinase (Homo sapiens) (UniProt P31749); experiment: PKBalpha (h) Eurofins kinase panel; details: Compound concentration 1.0 uM
[10] = target: Protein kinase C beta type (Homo sapiens) (UniProt P05771); experiment: PKCbetaII (h) Eurofins kinase panel; details: Compound concentration 1.0 uM
[11] = target: Protein kinase C gamma type (Homo sapiens) (UniProt P05129); experiment: PKCgamma(h) Eurofins kinase panel; details: Compound concentration 1.0 uM
[12] = target: Testis-specific serine/threonine-protein kinase 4 (Homo sapiens) (UniProt Q6SA08); experiment: TSSK4(h) Eurofins kinase panel; details: Compound concentration 1.0 uM
Rec1 = experiment: REC-1 cell line Proliferation assay; format: functional, Homo sapiens; details: time 3 day
[13] = target: Ribosomal protein S6 kinase alpha-5 (Homo sapiens, UniProt O75582); details: Compound concentration 1.0 uM
Ribosomal protein S6 kinase alpha-5, sequence (O75582 whole entry, looked up): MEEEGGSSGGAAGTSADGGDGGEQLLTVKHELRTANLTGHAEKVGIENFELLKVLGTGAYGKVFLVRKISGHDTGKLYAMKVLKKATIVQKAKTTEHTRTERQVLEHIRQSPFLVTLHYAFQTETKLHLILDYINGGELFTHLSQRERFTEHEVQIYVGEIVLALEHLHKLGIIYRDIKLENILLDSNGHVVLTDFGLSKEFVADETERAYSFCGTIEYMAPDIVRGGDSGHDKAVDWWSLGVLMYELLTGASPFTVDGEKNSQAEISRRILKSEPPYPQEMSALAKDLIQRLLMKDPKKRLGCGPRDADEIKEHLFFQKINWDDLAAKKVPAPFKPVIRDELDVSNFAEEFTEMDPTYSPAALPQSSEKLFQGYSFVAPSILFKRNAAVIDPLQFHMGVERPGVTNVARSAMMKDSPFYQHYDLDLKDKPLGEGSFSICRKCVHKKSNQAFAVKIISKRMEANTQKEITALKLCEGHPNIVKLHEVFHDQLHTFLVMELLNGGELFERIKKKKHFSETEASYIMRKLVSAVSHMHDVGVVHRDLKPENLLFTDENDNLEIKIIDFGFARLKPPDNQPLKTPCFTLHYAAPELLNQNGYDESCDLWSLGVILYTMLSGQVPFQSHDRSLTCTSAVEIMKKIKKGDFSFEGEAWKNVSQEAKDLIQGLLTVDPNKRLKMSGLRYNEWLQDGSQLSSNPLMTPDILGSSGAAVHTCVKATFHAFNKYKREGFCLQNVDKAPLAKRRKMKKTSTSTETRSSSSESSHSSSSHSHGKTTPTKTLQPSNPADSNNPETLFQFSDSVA

Calcium/calmodulin-dependent protein kinase type 1D (Homo sapiens), sequence (Q8IU85 whole entry, looked up): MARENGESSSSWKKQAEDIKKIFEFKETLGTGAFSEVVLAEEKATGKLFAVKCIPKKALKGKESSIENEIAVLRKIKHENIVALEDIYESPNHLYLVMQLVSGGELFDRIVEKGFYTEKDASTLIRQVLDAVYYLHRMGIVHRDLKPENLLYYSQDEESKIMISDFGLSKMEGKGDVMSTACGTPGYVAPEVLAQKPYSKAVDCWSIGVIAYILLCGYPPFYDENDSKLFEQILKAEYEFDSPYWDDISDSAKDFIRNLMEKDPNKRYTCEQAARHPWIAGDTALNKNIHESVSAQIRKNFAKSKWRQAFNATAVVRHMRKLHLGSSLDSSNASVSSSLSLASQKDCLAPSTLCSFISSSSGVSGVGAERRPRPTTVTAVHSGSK
Cyclin-dependent kinase-like 1 (Homo sapiens), sequence (Q00532 whole entry): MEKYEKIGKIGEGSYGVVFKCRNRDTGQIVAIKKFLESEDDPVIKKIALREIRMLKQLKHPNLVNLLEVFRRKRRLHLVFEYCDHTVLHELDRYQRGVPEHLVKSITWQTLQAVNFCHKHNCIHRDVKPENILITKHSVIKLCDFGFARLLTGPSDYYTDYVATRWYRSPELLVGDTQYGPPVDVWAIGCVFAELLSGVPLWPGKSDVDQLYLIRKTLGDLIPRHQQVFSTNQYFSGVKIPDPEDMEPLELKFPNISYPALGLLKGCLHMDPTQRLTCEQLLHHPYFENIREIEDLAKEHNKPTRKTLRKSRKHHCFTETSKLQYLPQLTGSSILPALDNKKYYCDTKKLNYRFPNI

CCc1ccccc1C(=O)Nc1n[nH]c2c(C)c(F)c(C3C(C#N)=C(C)N(C)C(C)=C3C#N)cc12 [BAY-3827]
inactive: % residual kinase activity [1] 104% | % residual kinase activity [2] 95% | % residual kinase activity [3] 119% | % residual kinase activity [4] 95% | % residual kinase activity [5] 70% | % residual kinase activity [6] 93% | % residual kinase activity [7] 109% | % residual kinase activity [8] 47% | % residual kinase activity [9] 91% | % residual kinase activity [10] 42% | % residual kinase activity [11] 47% | % residual kinase activity [12] 103% | % residual kinase activity [13] 10%
3.3 µM: Cell Proliferation IC50 (Rec1)
